Reference: paper PMC5064435, “Inhibition of endoplasmic reticulum glucosidases is required for in vitro and in vivo dengue antiviral activity by the iminosugar UV-4” (Antiviral Research, 2016)
Where a name gives a salt, the structure may show the parent alone.

Experiments:
Type in all cases: biochemical
Settings in all cases: read-out: IC50 ^a / UV-4B
[1] = target: T1, Human lysosome (α-galactosidase) (Homo sapiens, UniProt P06280); assay: enzyme inhibition assay
T1 construct: gene GLA
T1 sequence (P06280 32-429): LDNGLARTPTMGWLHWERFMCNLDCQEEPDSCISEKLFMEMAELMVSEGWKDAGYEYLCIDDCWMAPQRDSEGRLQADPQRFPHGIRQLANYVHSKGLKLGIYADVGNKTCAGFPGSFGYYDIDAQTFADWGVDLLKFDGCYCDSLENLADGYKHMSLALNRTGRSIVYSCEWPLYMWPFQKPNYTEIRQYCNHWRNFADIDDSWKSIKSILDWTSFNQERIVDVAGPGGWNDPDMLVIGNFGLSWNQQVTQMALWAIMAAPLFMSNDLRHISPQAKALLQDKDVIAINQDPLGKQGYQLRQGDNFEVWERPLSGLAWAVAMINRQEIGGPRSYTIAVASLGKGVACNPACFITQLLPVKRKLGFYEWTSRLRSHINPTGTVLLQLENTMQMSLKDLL
Description: enzyme inhibition assay on Human lysosome (α-galactosidase)

[2] = target: T2, Mouse ER α-glucosidase II (Mus musculus, UniProt Q8BHN3); assay: enzyme inhibition assay, purified enzyme
T2 construct: gene Ganab; with Glucosidase 2 subunit beta
T2 sequence (Q8BHN3 33-944): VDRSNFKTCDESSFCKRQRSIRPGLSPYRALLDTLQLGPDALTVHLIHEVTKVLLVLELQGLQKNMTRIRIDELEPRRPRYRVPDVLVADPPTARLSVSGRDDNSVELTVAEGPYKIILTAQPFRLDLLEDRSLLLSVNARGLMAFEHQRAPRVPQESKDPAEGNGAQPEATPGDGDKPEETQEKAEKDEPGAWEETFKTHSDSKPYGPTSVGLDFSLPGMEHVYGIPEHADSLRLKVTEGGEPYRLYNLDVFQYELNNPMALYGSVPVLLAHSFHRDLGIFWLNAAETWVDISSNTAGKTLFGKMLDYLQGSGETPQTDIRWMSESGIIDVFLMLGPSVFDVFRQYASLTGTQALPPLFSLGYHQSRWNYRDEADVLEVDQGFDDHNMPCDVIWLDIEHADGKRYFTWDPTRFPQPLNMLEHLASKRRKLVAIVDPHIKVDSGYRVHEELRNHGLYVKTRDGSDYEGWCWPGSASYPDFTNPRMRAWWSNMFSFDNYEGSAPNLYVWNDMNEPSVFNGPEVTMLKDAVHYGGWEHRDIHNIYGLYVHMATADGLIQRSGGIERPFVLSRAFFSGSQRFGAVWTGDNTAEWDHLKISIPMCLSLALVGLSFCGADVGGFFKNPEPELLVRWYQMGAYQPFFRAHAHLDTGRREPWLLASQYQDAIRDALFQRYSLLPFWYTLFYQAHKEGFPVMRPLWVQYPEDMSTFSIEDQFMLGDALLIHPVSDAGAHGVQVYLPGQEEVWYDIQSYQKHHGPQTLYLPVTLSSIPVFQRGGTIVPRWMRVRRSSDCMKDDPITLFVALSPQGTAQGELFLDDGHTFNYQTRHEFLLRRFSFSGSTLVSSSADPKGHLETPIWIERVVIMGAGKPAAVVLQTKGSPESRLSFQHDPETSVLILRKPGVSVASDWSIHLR
T2 sequence (O08795 15-521 partner): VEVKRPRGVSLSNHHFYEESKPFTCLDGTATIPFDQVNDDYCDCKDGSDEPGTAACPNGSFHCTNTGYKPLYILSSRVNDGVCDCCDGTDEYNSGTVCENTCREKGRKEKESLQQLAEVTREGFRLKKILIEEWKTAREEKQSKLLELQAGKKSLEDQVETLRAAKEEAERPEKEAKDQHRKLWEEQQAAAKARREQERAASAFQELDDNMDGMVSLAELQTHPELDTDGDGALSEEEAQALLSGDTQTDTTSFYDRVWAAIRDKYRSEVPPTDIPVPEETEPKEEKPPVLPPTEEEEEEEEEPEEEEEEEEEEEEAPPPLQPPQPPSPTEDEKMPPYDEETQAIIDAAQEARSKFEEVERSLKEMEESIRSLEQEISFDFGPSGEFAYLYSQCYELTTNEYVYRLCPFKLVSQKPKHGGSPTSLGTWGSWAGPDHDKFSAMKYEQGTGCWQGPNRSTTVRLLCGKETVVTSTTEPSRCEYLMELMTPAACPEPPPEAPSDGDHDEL
Description: enzyme inhibition assay, purified enzyme on Mouse ER α-glucosidase II

Rat intestinal maltase = target: T3, Rat intestinal maltase; assay: enzyme inhibition assay
T3 construct: gene Mgam; native rat intestinal enzyme activity; maltase may be maltase-glucoamylase and/or sucrase-isomaltase
Description: enzyme inhibition assay on Rat intestinal maltase

Mouse ER α-glucosidase I = target: T4, Mouse ER α-glucosidase I (Mus musculus, UniProt Q80UM7); assay: enzyme inhibition assay, purified enzyme
T4 construct: gene Mogs
T4 sequence (Q80UM7 1-834): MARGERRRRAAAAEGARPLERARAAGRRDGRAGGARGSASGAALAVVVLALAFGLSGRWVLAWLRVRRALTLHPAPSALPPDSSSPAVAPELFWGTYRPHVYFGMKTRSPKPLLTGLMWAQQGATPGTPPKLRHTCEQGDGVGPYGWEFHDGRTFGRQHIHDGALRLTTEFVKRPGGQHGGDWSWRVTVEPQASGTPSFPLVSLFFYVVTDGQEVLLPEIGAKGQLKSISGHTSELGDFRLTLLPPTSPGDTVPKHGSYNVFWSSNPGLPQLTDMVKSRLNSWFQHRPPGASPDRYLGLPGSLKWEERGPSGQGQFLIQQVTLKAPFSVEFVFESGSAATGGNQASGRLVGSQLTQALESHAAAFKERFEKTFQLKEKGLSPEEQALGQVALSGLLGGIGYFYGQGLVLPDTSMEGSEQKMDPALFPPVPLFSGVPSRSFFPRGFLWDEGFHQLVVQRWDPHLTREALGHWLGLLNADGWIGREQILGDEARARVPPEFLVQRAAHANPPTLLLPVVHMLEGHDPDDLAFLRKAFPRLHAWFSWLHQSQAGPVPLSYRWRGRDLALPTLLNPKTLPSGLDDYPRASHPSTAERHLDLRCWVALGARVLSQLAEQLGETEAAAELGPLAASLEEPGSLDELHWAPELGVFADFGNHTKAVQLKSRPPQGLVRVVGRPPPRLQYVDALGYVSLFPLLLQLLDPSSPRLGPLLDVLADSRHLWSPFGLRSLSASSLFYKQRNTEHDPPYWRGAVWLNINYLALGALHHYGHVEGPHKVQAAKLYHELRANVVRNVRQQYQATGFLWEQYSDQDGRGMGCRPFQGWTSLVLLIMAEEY
Description: enzyme inhibition assay, purified enzyme on Mouse ER α-glucosidase I

Rat intestinal sucrase = target: T5, Rat intestinal sucrase (Rattus norvegicus, UniProt P23739); assay: enzyme inhibition assay
T5 construct: gene Si; native rat intestinal enzyme; sucrase (C-terminal) subunit of sucrase-isomaltase
Description: enzyme inhibition assay on Rat intestinal sucrase

T5 sequence (P23739 1014-1841 limits assumed): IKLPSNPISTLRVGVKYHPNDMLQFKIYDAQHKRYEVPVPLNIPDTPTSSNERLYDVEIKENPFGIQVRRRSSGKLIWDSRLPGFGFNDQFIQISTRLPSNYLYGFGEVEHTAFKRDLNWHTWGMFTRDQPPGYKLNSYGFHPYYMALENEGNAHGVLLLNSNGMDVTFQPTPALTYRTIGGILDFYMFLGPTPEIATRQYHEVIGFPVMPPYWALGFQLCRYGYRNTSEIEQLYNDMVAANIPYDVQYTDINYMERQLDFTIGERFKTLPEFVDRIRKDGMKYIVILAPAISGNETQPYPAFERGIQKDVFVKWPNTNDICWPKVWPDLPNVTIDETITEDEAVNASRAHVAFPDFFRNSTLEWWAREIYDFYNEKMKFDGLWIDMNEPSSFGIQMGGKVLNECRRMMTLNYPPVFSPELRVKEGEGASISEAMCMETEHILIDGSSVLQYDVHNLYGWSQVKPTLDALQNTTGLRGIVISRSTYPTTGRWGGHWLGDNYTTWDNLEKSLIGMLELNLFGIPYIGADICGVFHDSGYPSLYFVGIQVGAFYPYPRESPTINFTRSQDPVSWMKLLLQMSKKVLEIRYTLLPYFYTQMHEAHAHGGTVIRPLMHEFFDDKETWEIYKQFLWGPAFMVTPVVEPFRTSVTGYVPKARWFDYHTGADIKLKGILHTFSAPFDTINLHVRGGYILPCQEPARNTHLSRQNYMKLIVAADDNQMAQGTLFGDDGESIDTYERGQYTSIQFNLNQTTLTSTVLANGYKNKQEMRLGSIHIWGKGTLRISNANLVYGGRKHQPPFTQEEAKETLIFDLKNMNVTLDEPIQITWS

Q: `COCCCCCCCCCN1C[C@H](O)[C@@H](O)[C@H](O)[C@H]1CO` [UV-4B, N-(9′-methoxynonyl)-1-deoxynojirimycin hydrochloride] was tested. Which IC50 [1] did it give?
A: > 1000 µM

Q: What about the IC50 [2] of the same compound?
A: 1.8 µM

Q: What about the IC50 (Rat intestinal maltase) of the same compound?
A: 0.28 µM

Q: And the IC50 (Mouse ER α-glucosidase I)?
A: 0.16 µM

Q: What about the IC50 (Rat intestinal sucrase) of the same compound?
A: 0.5 µM
